Results from patent publication US11440913B2, “Aminoimidazopyridazines as kinase inhibitors” (BRISTOL-MYERS SQUIBB COMPANY, priority 2017, dated 2022).
pIC50: −log10 of the molar value. Structures can show the parent of a compound that is named as a salt. Where two headings read alike, the source gives them in different places.

Experiments:
[1] = biological target: His-GST-TVMV-hRIPK1(1-324) (Homo sapiens (Human), UniProt Q13546); test: RIPK1 HTRF Binding Assay; details: HTRF binding, 1 h at rt; read-out: RIPK1 (IC50)
Method in brief: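 HTRF probe-displacement binding: 1 nM His-GST-TVMV-hRIPK1(1-324) (baculovirus construct), 90.6 nM probe, 0.2 nM anti-GST-Tb in 20 mM HEPES, 10 mM MgCl2, 0.015% Brij-35, 4 mM DTT, 0.05 mg/mL BSA. Incubated 1 h at rt; FRET 520/495 nm ratio, inhibition relative to DMSO-only wells.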

[2] = test system: MLKL phosphorylation in HT29-L23 human colorectal adenocarcinoma cells; test: MLKL Phosphorylation High-Content Assay; assay type: cell-based; details: 6 h, necroptosis induced with TNFα, SMAC mimetic and Z-VAD, read-out: pMLKL (IC50)
Method in brief: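 HT29-L23 cells pretreated 30 min at 37 °C with compound (6.25 to 0.106 μM final), then necroptosis induced with TNFα 35 ng/mL, SMAC mimetic 700 nM and Z-VAD 140 nM for 6 h. Fixed cells immunostained for MLKL pS358 and imaged; IC50 and Ymax from 4-parameter logistic fit.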

His-GST-TVMV-hRIPK1(1-324), sequence (Q13546 1-324): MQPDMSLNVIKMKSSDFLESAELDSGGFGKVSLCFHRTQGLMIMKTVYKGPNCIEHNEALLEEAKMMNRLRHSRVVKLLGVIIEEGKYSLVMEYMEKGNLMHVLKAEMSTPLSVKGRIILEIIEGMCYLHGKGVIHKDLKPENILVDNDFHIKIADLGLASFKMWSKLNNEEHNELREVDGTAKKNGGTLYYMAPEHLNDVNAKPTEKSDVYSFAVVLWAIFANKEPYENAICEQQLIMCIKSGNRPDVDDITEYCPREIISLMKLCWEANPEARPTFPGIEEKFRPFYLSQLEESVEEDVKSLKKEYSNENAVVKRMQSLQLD

| SMILES | pIC50 [1] | pIC50 ([2]; Homo sapiens) | pIC50 [2] |
| --- | --- | --- | --- |
| COc1c(F)cc(F)cc1CNC(=O)c1c(C)ccc(-c2ccc3nc(NC(C)=O)cn3n2)c1F [Example 414, N-[(3,5-difluoro-2-methoxyphenyl)methyl]-3-{2-acetamidoimidazo [1,2-b]pyridazin-6-yl}-2-fluoro-6-methylbenzamide] | 7.04 | 6.42 | – |
| COc1ncc(-c2ccc3nc(NC(C)=O)cn3n2)cc1C(=O)NCc1c(F)cccc1OCC(F)(F)F [Example 102, 5-{2-acetamidoimidazo[1,2-b]pyridazin-6-yl}-N-{[2-fluoro-6-(2,2,2-trifluoroethoxy)phenyl]methyl}-2-methoxypyridine-3-carboxamide] | 8.15 | 8.00 | – |
| Cc1ncc(-c2ccc3nc(NC(=O)CN)cn3n2)cc1C(=O)N[C@H](C)c1cc(OC(F)(F)F)ccc1F [Example 341, 5-[2-(2-aminoacetamido)-imidazo[1,2-b]pyridazin-6-yl]-N-[(1R)-1-[2-fluoro-5-(trifluoromethoxy)-phenyl]ethyl]-2-methylpyridine-3-carboxamide] | 7.04 | 6.31 | – |
| CC(=O)Nc1cn2nc(-c3cnc(C)c(C(=O)N(C)[C@H](C)c4cc(OC(F)(F)F)ccc4F)c3)ccc2n1 [Example 330, 5-{2-acetamidoimidazo[1,2-b]pyridazin-6-yl}-N-[(1R)-1-[2-fluoro-5-(trifluoromethoxy)phenyl]ethyl]-N,2-dimethylpyridine-3-carboxamide] | 7.34 | 6.97 | – |
| CC(=O)Nc1cn2nc(-c3cnc(C)c(C(=O)NCc4cccnc4OCC4CCCC4)c3)ccc2n1 [Example 217, N-{[2-(cyclopentylmethoxy)pyridin-3-yl]methyl}-5-{2-acetamidoimidazo [1,2-b]pyridazin-6-yl}-2-methylpyridine-3-carboxamide] | 7.27 | 6.69 | – |
| COc1ncc(-c2ccc3nc(NC(C)=O)c(C)n3n2)cc1C(=O)NCCC(C)c1ccccc1 (stereo not shown) [Example 256, 5-{2-acetamido-3-methylimidazo[1,2-b]pyridazin-6-yl}-2-methoxy-N-(3-phenylbutyl)pyridine-3-carboxamide, TFA] | 8.05 | 7.57 | – |
| CC(=O)Nc1cn2nc(-c3cnc(C)c(C(=O)NC(C)c4cc(OC(F)(F)F)ccc4F)c3)ccc2n1 (single isomer, unassigned) [Example 9-1, 5-(2-acetamidoimidazo[1,2-b]pyridazin-6-yl)-N-(1-(2-fluoro-5-(trifluoromethoxy)phenyl)ethyl)-2-methylnicotinamide] | 7.60 | 7.60 | – |
| CCc1ncc(-c2ccc3nc(NC(C)=O)cn3n2)cc1C(=O)NCc1cc(C(F)(F)F)ccc1F [Example 329, 5-{2-acetamidoimidazo[1,2-b]pyridazin-6-yl}-2-ethyl-N-{[2-fluoro-5-(trifluoromethyl)phenyl]methyl}pyridine-3-carboxamide] | 7.28 | 7.06 | – |
| [2H]C([2H])([2H])Oc1ncc(-c2ccc3nc(NC(C)=O)cn3n2)cc1C(=O)N[C@@H](C)c1cc(OC(F)(F)F)ccc1F [Example 41, 5-{2-acetamidoimidazo[1,2-b]pyridazin-6-yl}-N-[(1S)-1-[2-fluoro-5-(trifluoromethoxy)phenyl]ethyl]-2-(D3)methoxypyridine-3-carboxamide] | 7.20 | 7.11 | – |
| [2H]C([2H])([2H])Oc1ncc(-c2ccc3nc(NC(C)=O)cn3n2)cc1C(=O)NC(C)c1cc(C(F)(F)F)ccc1F (stereo not shown) [Example 52, 5-{2-acetamidoimidazo[1,2-b]pyridazin-6-yl}-N-{1-[2-fluoro-5-(trifluoromethyl)phenyl]ethyl}-2-(D3)methoxypyridine-3-carboxamide] | 7.19 | – | 6.73 |
| CC(=O)Nc1cn2nc(-c3ccc(Cl)c(C(=O)NCc4ccc(OC(F)(F)F)cc4)c3F)ccc2n1 [Example 391, 6-chloro-3-{2-acetamidoimidazo [1,2-b]pyridazin-6-yl}-2-fluoro-N-{[4-(trifluoromethoxy)phenyl]methyl} benzamide] | 6.98 | 6.56 | – |
| CC(=O)Nc1cn2nc(-c3cc(C(=O)NCC[C@H](O)c4ccc(Cl)cc4)c(C)cc3C)ccc2n1 [Example 383, N-[(3S)-3-(4-chlorophenyl)-3-hydroxypropyl]-5-{2-acetamidoimidazo [1,2-b]pyridazin-6-yl}-2,4-dimethylbenzamide] | 8.52 | 8.52 | – |
| Cc1ncc(-c2ccc3nc(NC(=O)CN(C)C)cn3n2)cc1C(=O)N[C@H](C)c1cc(OC(F)(F)F)ccc1F [Example 338, 5-{2-[2-(dimethylamino)-acetamido]-imidazo[1,2-b]pyridazin-6-yl}-N-[(1R)-1-[2-fluoro-5-(trifluoromethoxy)-phenyl]ethyl]-2-methylpyridine-3-carboxamide] | 7.68 | 7.30 | – |
| COc1ncc(-c2ccc3nc(NC(C)=O)cn3n2)cc1C(=O)N(C)Cc1cccc(OC(F)(F)F)c1 [Example 143, 5-{2-acetamidoimidazo[1,2-b]pyridazin-6-yl}-2-methoxy-N-methyl-N-{[3-(trifluoromethoxy)phenyl]meth-yl}pyridine-3-carboxamide] | 8.10 | 8.40 | – |
| [2H]C([2H])(NC(=O)c1cc(-c2ccc3nc(NC(C)=O)cn3n2)c(C)nc1C)c1cc(F)cc(F)c1OC1CCOCC1 [Example 66, N-{[3,5-difluoro-2-(oxan-4-yloxy)phenyl](deutero)methyl}-5-{2-acetamidoimidazo[1,2-b]pyridazin-6-yl}-2,6-dimethylpyridine-3-carboxamide] | 8.05 | 8.10 | – |
| COc1ccc(F)c(CNC(=O)c2cc(-c3ccc4nc(NC(C)=O)cn4n3)cnc2OC)c1 [Example 100, 5-{2-acetamidoimidazo[1,2-b]pyridazin-6-yl}-N-[(2-fluoro-5-methoxyphenyl)methyl]-2-methoxypyridine-3-carboxamide] | 7.25 | 6.69 | – |
| CC(=O)Nc1cn2nc(-c3cnc(C)c(C(=O)NC(C)c4ccccc4OC(F)(F)F)c3)ccc2n1 (stereo not shown) [Example 203, 5-{2-acetamidoimidazo[1,2-b]pyridazin-6-yl}-2-methyl-N-{1-[2-(trifluoromethoxy)phenyl]ethyl}pyridine-3-carboxamide] | < 5.30 | – | < 5.20 |
| COc1ncc(-c2ccc3nc(NC(C)=O)cn3n2)cc1C(=O)NCc1ccccc1OCC1CCCC1 [Example 164, N-{[2-(cyclopentylmethoxy)phenyl]methyl}-5-{2-acetamidoimidazo[1,2-b]pyridazin-6-yl}-2-methoxypyridine-3-carboxamide] | 8.00 | 7.49 | – |
| COc1ncc(-c2ccc3nc(NC(=O)CC#N)cn3n2)cc1C(=O)NCc1ccccc1OC(F)(F)F [Example 32, 5-[2-(2-cyanoacetamido)imidazo[1,2-b]pyridazin-6-yl]-2-methoxy-N-{[2-(trifluoromethoxy)phenyl]methyl}pyridine-3-carboxamide] | 7.11 | 6.75 | – |
| CCC(=O)Nc1cn2nc(-c3cnc(OC)c(C(=O)NCc4cc(F)cc(F)c4OC4CCOCC4)c3)ccc2n1 [Example 247, N-{[3,5-difluoro-2-(oxan-4-yloxy)phenyl]methyl}-2-methoxy-5-{2-propanamidoimidazo[1,2-b]pyridazin-6-yl}pyridine-3-carboxamide] | 8.70 | 8.70 | – |
